Results as given in paper PMC11276905 (International Journal of Molecular Sciences, 2024).
Entries after “also recorded” stand apart in the source; their conditions may differ. Like-named read-outs stand apart in the source and are kept apart here. Where a SMILES comes first, the peptide text is derived from it. The star is where a group is joined. MeOSuc = COC(=O)CCC(=O)*; CH2Cl = ClC*

Experiments:
isolated HNE [1] = target: T1, isolated HNE (Homo sapiens, UniProt P08246); assay: Formation and dissociation of the HNE/inhibitor complex (pre-steady-state kinetics); assay type: biochemical
T1 construct: immediately processed to its active form in the trans-Golgi before being targeted to azurophil granules; purchased Merck (Darmstadt, Germany) 324681
T1 sequence (P08246 30-267): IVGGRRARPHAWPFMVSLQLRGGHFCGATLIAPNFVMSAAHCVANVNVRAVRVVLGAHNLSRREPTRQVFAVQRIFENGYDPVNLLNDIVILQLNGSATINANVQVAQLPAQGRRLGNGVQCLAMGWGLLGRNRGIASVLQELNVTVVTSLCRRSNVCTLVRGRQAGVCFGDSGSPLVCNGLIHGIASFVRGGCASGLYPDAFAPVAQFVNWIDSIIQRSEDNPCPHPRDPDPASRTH
Method: To determine the association rates (kon) of the inhibitors, the enzymatic activity of HNE (0.6 nM) was recorded continuously in an SFM25 fluorometer (Biotek Kontron, Neufahrn, Germany) by following the cleavage of MeOSuc-AAPV-AMC (10 µM) at 37 °C. When a constant rate was established (i.e., after 1–5 min), an inhibitor was added, and the reaction followed for up to 60 min. The pseudo-first-order rate constant kobs was obtained by fitting the observed presteady-state progress curve to the integrated equation of Morrison with pro-Fit. Apparent second-order rate constants were subsequently calculated as k2/Ki = kobs/It by linear regression from several independent experiments using a range of concentrations. For reversible inhibitors, the dissociation rate koff was subsequentially calculated as koff = Ki × kon; for irreversible inhibitors, koff is ≈ zero. Finally, the halftime of the HNE/inhibitor complex formation and dissociation were calculated as t1/2,on = 0.693/(kass × It + koff) and t1/2,off = 0.693/koff, respectively.

HNE in U937 cells = target: T2, HNE in U937 cells (Homo sapiens, UniProt P08246); assay: Intracellular HNE inhibition in cultured U937 cells (residual activity in lysates); assay type: cell-based; conditions: for time course of HNE inhibition in U937 cells (in words): 0-26 h culture
T2 construct: the myeloid cell line U937, which can differentiate into neutrophils [25] and expresses HNE; host or cells: U937 (histiocytic lymphoma), undifferentiated
T2 sequence (P08246 30-247 limits assumed): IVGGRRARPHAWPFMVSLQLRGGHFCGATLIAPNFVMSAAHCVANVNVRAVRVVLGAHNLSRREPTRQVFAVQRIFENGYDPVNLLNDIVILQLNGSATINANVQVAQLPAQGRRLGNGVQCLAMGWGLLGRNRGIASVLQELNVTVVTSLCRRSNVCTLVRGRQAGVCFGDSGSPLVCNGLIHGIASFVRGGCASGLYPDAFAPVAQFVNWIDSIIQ
Method: (§2) The enzymatic activity of HNE was measured using a fluorescence-based assay in 96-well black bottom plates (Corning®, 003916, New York, NY, USA). HNE (0.5 nM) or cell lysates (20 µL, ~100 PMN/µL, ~1000 U937/µL, ~5000 HL-60/µL or ~1000 HMC-1/µL) were diluted in assay buffer (200 mM TRIS HCl, 500 mM NaCl, 0.05% Tween-20, pH 8.0). […] AMC (7-Amino-4-methylcoumarin) standard curves were generated by measuring serial dilutions of the fluorophore AMC (1 µM–0 µM) in assay buffer on the same plate and used to calculate nM AMC generation from fluorescence measurements.
(§3) U937 cells were plated in sterile 96-U-well plates (92697, TPP, Trasadingen, Switzerland) at a density of 100 cells/µL in a cell culture medium (180 µL per well). Increasing concentrations of inhibitors and solvent controls were diluted in a culture medium and added (20 µL/well) to the 96-well plate 26 h, 6 h, 3 h, and 0 h before harvesting and lysing the cells (see below). Plates were kept at 37 °C, 5% CO2, and 95% humidity throughout the incubation period. […] Similarly, freshly isolated PMN were plated at 50–100 cells/µL in PBS (1 g/L glucose) and incubated for 1 h with inhibitors or controls.
(§4) For cell lysis, cells were pelleted in the microtiter plates by centrifugation (400× g, 10 min, 4 °C) and washed three times in PBS (4 °C). Washed cells were then lysed by adding lysis buffer (PBS, 1 M NaCl, 0.1% Tween-20, pH 7.4) and freeze–thawing on dry ice. Finally, lysates were centrifuged (2100× g) to remove cell debris. Enzymatic activity of HNE was determined as described above, and residual activity present after incubation with inhibitors expressed as % of matched solvent controls.

[2] = target: T3, isolated HNE (human neutrophil elastase) (Homo sapiens, UniProt P08246); assay: Inhibition of isolated HNE, steady-state kinetics (MeOSuc-AAPV-AMC); assay type: biochemical; conditions: for Ki: HNE 0.5 nM, incubated 1 h 37 °C, Morrison fit, mean ± SD, compound 5b in phosphate buffer pH 7.4
T3 construct: immediately processed to its active form in the trans-Golgi before being targeted to azurophil granules; purchased Merck (Darmstadt, Germany) 324681
T3 sequence (P08246 30-267): T1 sequence (P08246 30-267)
Method: (§1) To determine the inhibition constants of reversible inhibitors with isolated HNE and HNE in cell lysates, HNE (0.5 nM) and U937 lysates (1000 cells/µL) were incubated with serial dilutions of the compounds in assay buffer at 37 °C for ≥ 1 h. Subsequently, residual HNE activity was measured as described above and compared to the activity of uninhibited HNE. […] The inhibition curves generated were fitted to Morrisons’s equation to obtain the dissociation equilibrium constant Ki with pro-Fit (Quantum Soft, Uetikon am See, Switzerland) using a Levenberg–Marquardt algorithm.

HNE in mature PMN = target: T4, HNE in mature PMN (Homo sapiens, UniProt P08246); assay: Intracellular HNE inhibition in freshly isolated mature PMN; conditions: for potency in PMN compared with U937 cells (in words): PMN 1 h vs U937 0-3 h
T4 sequence (P08246 30-247 limits assumed): T2 sequence (P08246 30-247 limits assumed)
Method: Peripheral venous blood was collected from six healthy donors after informed consent (votum 018-09 of the local ethics committee), and differential blood counts were performed. Neutrophil granulocytes were isolated using the MACSxpress neutrophil isolation kit (Miltenyi Biotec, Bergisch Gladbach, Germany) following the manufacturer’s instructions. Residual erythrocytes were eliminated by hypotonic lysis. Neutrophils were resuspended in PBS with glucose (1 g/L) at a density of 50–100 cells/µL. The purity of the final cell population was analyzed by staining a smear using Pappenheim’s method and counting ≥200 cells using a light microscope.
as §2, §3, §4

HNE in U937 lysates = target: T5, HNE in U937 lysates (Homo sapiens, UniProt P08246); assay: Inhibition of HNE activity in U937 lysates; assay type: biochemical; conditions: U937 lysate 1000 cells/µL, incubated 1 h 37 °C, Morrison fit, mean ± SD
T5 construct: the myeloid cell line U937, which can differentiate into neutrophils [25] and expresses HNE; host or cells: U937 (histiocytic lymphoma), undifferentiated
T5 sequence (P08246 30-247 limits assumed): T2 sequence (P08246 30-247 limits assumed)
Method: For the quantification and characterization of HNE-like activity in cell lysates, the density of the sample cell suspension was first quantified using a CASY-1 cell counter.
as §1

isolated HNE [3] = target: T1, isolated HNE; parameters: method as in PMID 21791628; conditions: cited from earlier work

| Ki [2] [nM] | potency in PMN compared with U937 cells (in words) (HNE in mature PMN) | Ki (HNE in U937 lysates) [nM] | SMILES | time course of HNE inhibition in U937 cells (in words) (HNE in U937 cells) | also measured |
| --- | --- | --- | --- | --- | --- |
| 0.25 | somewhat less potent | 0.34 | CCC[C@@H](NC(=O)N1C(=O)C(CC)(CC)[C@@H]1Oc1ccc(C(=O)N2CCN(C)CC2)cc1)c1ccc2c(c1)OCO2 [DMP 777] | inhibit HNE in U937 cells increasingly over the 26 h observation period | koff (isolated HNE [1]; koff = Ki × kon, irreversible inhibitors ≈ zero): 0.00012 s⁻¹; kon (isolated HNE [1]; pre-steady-state kinetics, HNE 0.6 nM, 37 °C, mean ± SD): 4.9 ± 0.4 × 10^5 M^−1 s^−1 |
| – | somewhat less potent | – | CC(C)[C@@H]1C(=O)N(S(C)(=O)=O)[C@@H]2CCN(C(=O)/C=C/CN3CCCCC3)[C@H]21 [GW311616] | inhibit HNE in U937 cells increasingly over the 26 h observation period | – |

Further lines, the compound ahead of its results:

| SMILES | Ki [2] [nM] | potency in PMN compared with U937 cells (in words) (HNE in mature PMN) | Ki (HNE in U937 lysates) [nM] | time course of HNE inhibition in U937 cells (in words) (HNE in U937 cells) | also measured |
| --- | --- | --- | --- | --- | --- |
| CN(C(=O)c1cc2ccccc2cc1C(=O)C(c1cccc2ccccc12)P(=O)(O)O)C1CCN(C(=O)c2ccccc2)CC1 (stereo not drawn) [Cathepsin G Inhibitor] | > 10000 | – | – | – | inhibition of HNE (in words) ([2]; negative controls): no inhibition |
| COC(=O)CCC(=O)N[C@@H](C)C(=O)N[C@@H](C)C(=O)N1CCC[C@H]1C(=O)N[C@H](C(=O)CCl)C(C)C [MeOSuc-AAPV-CMK] (MeOSuc-AAPV-CH2Cl) | – | – | – | inhibit HNE in U937 cells increasingly over the 26 h observation period | – |
| Cc1c(-c2ccnn2C)cc(C(=O)NCc2ccc(S(C)(=O)=O)cn2)c(=O)n1-c1cccc(C(F)(F)F)c1 [Alvelestat, alvelestat] | 9 | – | 11 | – | half-life of the complex with HNE (in words) (isolated HNE [1]): seconds to a few minutes; effect on HNE activity in the U937 cell culture model (in words) (HNE in U937 cells; 0-26 h, increasing concentrations, alvelestat and sivelestat up to more than 1000-fold above Ki): no detectable effect; also recorded: no measurable effect; also recorded: do not cause detectable intracellular inhibition; koff (isolated HNE [3]): 0.057 s⁻¹; kon (isolated HNE [3]; too fast to be recorded with authors' setup): 7e+06 M⁻¹ s⁻¹; effect on HNE in mature PMN (in words) (HNE in mature PMN; 1 h incubation): negligible effect |
